Assay results published in patent US20210308228A1, “METHOD FOR REDUCING THE OCCURRENCE OF THROMBOSIS OR THROMBOEMBOLISM” (THE BOARD OF REGENTS OF THE UNIVERSITY OF TEXAS SYSTEM, priority 2020, published 2021).
Marks after values point to notes of the source that are not given here.

Legend:
[1] = tested on: FXa; experiment: Anti-FXa levels determined chromogenically (ACL-TOP) in plasma treated ex vivo with enoxaparin; type: biochemical, human; conditions: for Anti FXa levels (IU/mL): median
Excerpt: (§1) Citrated plasma samples were thawed immediately prior to use. First, plasma from healthy, uninjured volunteers was used to optimize ex vivo dosing of enoxaparin. […] Given that the inventors spiked plasma with an enoxaparin dose of 0.13 IU/mL, our target anti-FXa level in response to enoxaparin was defined as 0.13 IU/mL. The responses to enoxaparin between healthy uninjured volunteers and trauma patients were compared by treating all plasma samples ex vivo with 0.13 IU/mL of enoxaparin. Trauma patient samples were additionally supplemented with AT using either FFP at a dose of 30% volume or AT concentrate in the form of THROMBATE III®, provided by Grifols, up to 80%, 120%, 150%, 180%, and 200% final concentration based on baseline values. This was done in an effort to improve patient plasma responses to enoxaparin to the levels observed in healthy controls. Similar to our previous work, the inventors chose FFP at a dose of 30% volume to model the effects of transfusing six units of plasma. Calculations were based on the activity (IUs) provided by the manufacturer for a given lot of THROMB ATE III® (approximately 500 IUs/10 mL) and the patient's baseline AT activity levels. AT supplementation was confirmed by measuring AT activity using ACL-TOP. Thrombin generation and anti-FXa levels were measured to assess the response to enoxaparin and supplementation with AT. Healthy volunteer plasma served as an uninjured control for normal AT, anti-FXa, and thrombin generation levels before and after treatment with enoxaparin.
(§2) AT activity and anti-FXa levels were determined chromogenically using an ACL-TOP Coagulation Analyzer (Instrumentation Laboratory, Bedford Mass.). Thrombin generation was measured using a calibrated automated thrombogram (CAT) (Thermo Fisher Scientific, Waltham Mass.) as previously described. Relevant parameters resulting from CAT analysis include lag time (the time to initiation of thrombin generation; min), peak (the highest amount of thrombin generated; nM), time to peak [ttpeak] (the time it takes to achieve the peak; min), endogenous thrombin potential [ETP] (the total amount of thrombin generated over time; […]), and rate (the velocity of thrombin generation dictated by the slope of the thrombin generation curve; nM/min).

[2] = tested on: thrombin generation; experiment: Thrombin generation by calibrated automated thrombogram (CAT) in plasma treated ex vivo; type: biochemical, human; conditions: for Delta ETP (%) / Delta Lagtime (%) / Delta Peak (%) / Delta Rate (%) / Delta ttPeak (%): enoxaparin 0.13 U/mL, median change vs baseline
Excerpt: as §1, §2

[3] = Healthy Donors (N = 15) plasma, enoxaparin 0.13 U/mL
[4] = No PE patients (N = 46) plasma, enoxaparin 0.13 U/mL
[5] = PE patients (N = 54) plasma, enoxaparin 0.13 U/mL
[6] = Trauma Patients (N = 100) plasma, enoxaparin 0.13 U/mL
[7] = Trauma Patients (N = 100) plasma

Substance: enoxaparin
- Rate Anti FXa ≥ 0.13 (number) [1, 3]: 15
- Rate Anti FXa ≥ 0.13 (percentage) [1, 3]: (100%)
- Anti FXa levels (IU/mL) [1, 3]: 0.16 IU/mL
- Rate Anti FXa ≥ 0.13 (number) [1, 4]: 26
- Rate Anti FXa ≥ 0.13 (percentage) [1, 4]: (57%)
- Anti FXa levels (IU/mL) [1, 4]: 0.14 IU/mL
- Rate Anti FXa ≥ 0.13 (number) [1, 5]: 24
- Rate Anti FXa ≥ 0.13 (percentage) [1, 5]: (44%)
- Anti FXa levels (IU/mL) [1, 5]: 0.13 IU/mL
- Rate Anti FXa ≥ 0.13 (number) [1, 6]: 59
- Rate Anti FXa ≥ 0.13 (percentage) ([1]; Trauma Patients (N = 100) plasma, enoxaparin 0.13 U/mL alone): (59%)*
- Rate Anti FXa ≥ 0.13 (percentage) ([1]; Trauma Patients (N = 100) plasma, enoxaparin 0.13 U/mL alone, listed as enoxaparin): 59%
- Anti FXa levels (IU/mL) [1, 6]: 0.13 IU/mL
- Delta ETP (%) ([2]; Healthy Donors (N = 15) plasma): −43%
- Delta Lagtime (%) ([2]; Healthy Donors (N = 15) plasma): 6.6%
- Delta Peak (%) ([2]; Healthy Donors (N = 15) plasma): −55%
- Delta Rate (%) ([2]; Healthy Donors (N = 15) plasma): −65%
- Delta ttPeak (%) ([2]; Healthy Donors (N = 15) plasma): 17%
- Delta ETP (%) ([2]; No PE patients (N = 46) plasma): −15.6%
- Delta Lagtime (%) ([2]; No PE patients (N = 46) plasma): 6.6%
- Delta Peak (%) ([2]; No PE patients (N = 46) plasma): −30.6%
- Delta Rate (%) ([2]; No PE patients (N = 46) plasma): −45.4%
- Delta ttPeak (%) ([2]; No PE patients (N = 46) plasma): 13.0%
- Delta ETP (%) ([2]; PE patients (N = 54) plasma): −13.2%
- Delta Lagtime (%) ([2]; PE patients (N = 54) plasma): 7.9%
- Delta Peak (%) ([2]; PE patients (N = 54) plasma): −20.7%
- Delta Rate (%) ([2]; PE patients (N = 54) plasma): −34.2%
- Delta ttPeak (%) ([2]; PE patients (N = 54) plasma): 10.7%
- Delta ETP (%) [2, 7]: −14%
- Delta Lagtime (%) [2, 7]: 7.9%
- Delta Peak (%) [2, 7]: −24%
- Delta Rate (%) [2, 7]: −39%
- Delta ttPeak (%) [2, 7]: 12%
- reduction in peak thrombin ([2]; plasma of patients who did develop PE, ex vivo enoxaparin): 20.7%
- median reduction in peak thrombin ([2]; plasma of patients who did not develop PE, ex vivo enoxaparin): 30.6%
